Values quoted from earlier work, collected in patent US8592434B2, “Mucoadhesive buccal tablets for the treatment of orofacial herpes” (BioAlliance Pharma SA, priority 2009, dated 2013).

Conditions: oral treatment, irrespective of the dosage and duration

| Headaches, treated patients | Structure (SMILES) |
| --- | --- |
| about 10% | CC(C)[C@H](N)C(=O)OCCOCn1cnc2c(=O)[nH]c(N)nc21 [valacyclovir, L-valine ester of acyclovir] |
| about 10% | CC(=O)OCC(CCn1cnc2cnc(N)nc21)COC(C)=O [famciclovir, diacetyl ester of 6-deoxy pencyclovir] |
